Results as given in US9809574B2, “Isoindoline or isoquinoline compounds, a process for their preparation and pharmaceutical compositions containing them” (LES LABORATOIRES SERVIER, priority 2013, dated 2017).
Counter-ions that a name gives are not always drawn.

Key:
Bcl-2 protein = Bcl-2 protein (histag-Bcl-2, UniProtKB P10415) (Homo sapiens (Human), UniProt P10415); assay: Inhibition of Bcl-2 by the fluorescence polarisation technique; format: binding; conditions: fluorescence polarisation test; incubation for 2 hours; read-out: IC50 (nM) Bcl-2 FP
Source text: For partial inhibitors, the percentage fluorescence polarisation inhibition for a given concentration of the test compound is indicated.

[1] = tested on: RS4; 11 leukaemia cell line; assay: In vitro cytotoxicity, Microculture Tetrazolium Assay (MTT); format: cell-based; conditions: 11 cells exposed for 48 hours
Protocol: The cytotoxicity studies were carried out on the RS4; 11 leukaemia cell line and on H146 small Cell Lung Carcinoma cell line. The cells are distributed onto microplates and exposed to the test compounds for 48 hours. The cell viability is then quantified by a colorimetric assay, the Microculture Tetrazolium Assay (Cancer Res., 1987, 47, 939-942).

Chain of Bcl-2 protein (P10415 whole entry): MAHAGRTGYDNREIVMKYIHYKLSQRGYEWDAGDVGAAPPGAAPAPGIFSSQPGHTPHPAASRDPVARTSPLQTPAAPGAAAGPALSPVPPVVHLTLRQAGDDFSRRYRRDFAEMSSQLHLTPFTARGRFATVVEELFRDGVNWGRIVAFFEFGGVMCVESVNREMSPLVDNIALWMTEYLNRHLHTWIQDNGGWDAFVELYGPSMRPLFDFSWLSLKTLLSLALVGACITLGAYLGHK

Row | SMILES | IC50 (Bcl-2 protein) [nM] | IC50 ([1]; Homo sapiens) [nM] | IC50 [1] [nM]
1 | Cc1c(C(=O)N(C)c2ccccc2)cc(-c2cc3c(cc2C(=O)N2Cc4ccccc4C[C@H]2CCCN2CCOCC2)CN(C(=O)OC2CCCCC2)CC3)n1C [Example 811, Cyclohexyl 6-{1,5-dimethyl-4-[methyl(phenyl)carbamoyl]-1H-pyrrol-2-yl}-7-[(3R)-3-[3-(morpholin-4-yl)propyl]-1,2,3,4-tetrahydroisoquinoline-2-carbonyl]-1,2,3,4-tetrahydroisoquinoline-2-carboxylate] | 3.8 | 94 | –
2 | CCN(C(=O)c1cc(-c2cc3c(cc2C(=O)N2Cc4ccccc4C[C@H]2CN2CCOCC2)CN(C(=O)Oc2ccccc2)CC3)n(C)c1C)c1ccc(O)cc1 [Example 185, Phenyl 6-{4-[ethyl(4-hydroxyphenyl)carbamoyl]-1,5-dimethyl-1H-pyrrol-2-yl}-7-[(3S)-3-(morpholin-4-ylmethyl)-1,2,3,4-tetrahydroisoquinoline-2-carbonyl]-1,2,3,4-tetrahydroisoquinoline-2-carboxylate] | 3.7 | 4.5 | –
3 | Cc1c(C(=O)N(C)c2ccccc2)cc(-c2cc3c(cc2C(=O)N2Cc4ccccc4C[C@H]2CN2CCOCC2)CN(C(=O)Oc2ccc4[nH]ccc4c2)CC3)n1C [Example 631, 1H-Indol-5-yl 6-{1,5-dimethyl-4-[methyl(phenyl)carbamoyl]-1H-pyrrol-2-yl}-7-[(3S)-3-(morpholin-4-ylmethyl)-1,2,3,4-tetrahydroisoquinoline-2-carbonyl]-1,2,3,4-tetrahydroisoquinoline-2-carboxylate] | 5.2 | 8.2 | –
4 | CN(C(=O)c1cc(-c2cc3c(cc2C(=O)N2Cc4ccccc4C[C@H]2CN2CCOCC2)CN(C(=O)OCc2ccccc2)CC3)n2c1CCCC2)c1ccc(O)cc1 [Example 94, Benzyl 6-{1-[(4-hydroxyphenyl)(methyl)carbamoyl]-5,6,7,8-tetrahydroindolizin-3-yl}-7-[(3S)-3-(morpholin-4-ylmethyl)-1,2,3,4-tetrahydroisoquinoline-2-carbonyl]-1,2,3,4-tetrahydroisoquinoline-2-carboxylate] | 5.6 | 19 | –
5 | Cc1c(C(=O)N(C)c2ccc(O)cc2)cc(-c2cc3c(cc2C(=O)N2Cc4ccccc4C[C@H]2C)CN(C(=O)OC2CCC(N)CC2)CC3)n1C (stereo partly drawn) [Example 801, (1r,4r)-4-Aminocyclohexyl 6-{4-[(4-hydroxyphenyl)(methyl)carbamoyl]-1,5-dimethyl-1H-pyrrol-2-yl}-7-[(3R)-3-methyl-1,2,3,4-tetrahydroisoquinoline-2-carbonyl]-1,2,3,4-tetrahydroisoquinoline-2-carboxylate hydrochloride] | 2.7 | – | > 150
6 | C[C@@H]1Cc2ccccc2CN1C(=O)c1cc2c(cc1-c1cc(C(=O)N(C)c3ccc(O)cc3)c3n1CCCC3)CN(C(=O)OC(C)(C)C)C2 [Example 13, tert-Butyl 5-{1-[(4-hydroxyphenyl)(methyl)carbamoyl]-5,6,7,8-tetrahydroindolizin-3-yl}-6-[(3R)-3-methyl-1,2,3,4-tetrahydroisoquinoline-2-carbonyl]-2,3-dihydro-1H-isoindole-2-carboxylate] | 108 | 729 | –
7 | CN(C(=O)c1cc(-c2cc3c(cc2C(=O)N2Cc4ccccc4C[C@H]2CN2CCOCC2)CN(C(=O)Oc2ccc(C(F)(F)F)cc2)CC3)n2c1CCCC2)c1ccc(O)cc1 [Example 124, 4-(Trifluoromethyl)phenyl 6-{1-[(4-hydroxyphenyl)(methyl)carbamoyl]-5,6,7,8-tetrahydroindolizin-3-yl}-7-[(3S)-3-(morpholin-4-ylmethyl)-1,2,3,4-tetrahydroisoquinoline-2-carbonyl]-1,2,3,4-tetrahydroisoquinoline-2-carboxylate] | 12 | 50 | –
8 | CC(=O)Nc1ccc(OC(=O)N2CCc3cc(-c4cc(C(=O)N(C)c5ccc(O)cc5)c5n4CCCC5)c(C(=O)N4Cc5ccccc5C[C@H]4C)cc3C2)cc1 [Example 59, 4-Acetamidophenyl 6-{1-[(4-hydroxyphenyl)(methyl)carbamoyl]-5,6,7,8-tetrahydroindolizin-3-yl}-7-[(3R)-3-methyl-1,2,3,4-tetrahydroisoquinoline-2-carbonyl]-1,2,3,4-tetrahydroisoquinoline-2-carboxylate] | 3.2 | 6.8 | –
9 | Cc1c(C(=O)N(C)c2ccc(O)cc2)cc(-c2cc3c(cc2C(=O)N2Cc4ccccc4C[C@H]2CN2CCOCC2)CN(C(=O)Oc2ccc4ccccc4c2)CC3)n1C [Example 574, Naphthalen-2-yl 6-{4-[(4-hydroxyphenyl)(methyl)carbamoyl]-1,5-dimethyl-1H-pyrrol-2-yl}-7-[(3S)-3-(morpholin-4-ylmethyl)-1,2,3,4-tetrahydroisoquinoline-2-carbonyl]-1,2,3,4-tetrahydroisoquinoline-2-carboxylate] | 8.8 | 11 | –
10 | Cc1ccc(OC(=O)N2CCc3cc(-c4cc(C(=O)N(C)c5ccccc5)c(C)n4C)c(C(=O)N4Cc5ccccc5C[C@H]4C)cc3C2)cc1 [Example 785, 4-Methylphenyl 6-{1,5-dimethyl-4-[methyl(phenyl)carbamoyl]-1H-pyrrol-2-yl}-7-[(3R)-3-methyl-1,2,3,4-tetrahydroisoquinoline-2-carbonyl]-1,2,3,4-tetrahydroisoquinoline-2-carboxylate] | 3.3 | 7.8 | –
11 | CN(C(=O)c1cc(-c2cc3c(cc2C(=O)N2Cc4ccccc4C[C@H]2CN2CCOCC2)CN(C(=O)Oc2ccc(Cl)cc2)CC3)n2c1CCCC2)c1ccc(O)cc1 [Example 122, 4-Chlorophenyl 6-{1-[(4-hydroxyphenyl)(methyl)carbamoyl]-5,6,7,8-tetrahydroindolizin-3-yl}-7-[(3S)-3-(morpholin-4-ylmethyl)-1,2,3,4-tetrahydroisoquinoline-2-carbonyl]-1,2,3,4-tetrahydroisoquinoline-2-carboxylate] | 2.6 | 5.4 | –
12 | C[C@@H]1Cc2ccccc2CN1C(=O)c1cc2c(cc1-c1cc(C(=O)N(C)c3ccc(O)cc3)c3n1CCCC3)CN(C(=O)Cc1ccc(OC(F)(F)F)cc1)C2 [Example 26, N-(4-Hydroxyphenyl)-N-methyl-3-{6-[(3R)-3-methyl-1,2,3,4-tetrahydroisoquinoline-2-carbonyl]-2-{2-[4-(trifluoromethoxy)phenyl]acetyl}-2,3-dihydro-1H-isoindol-5-yl}-5,6,7,8-tetrahydroindolizine-1-carboxamide] | 30 | 86 | –
13 | CCC(=O)N1Cc2cc(C(=O)N3Cc4ccccc4C[C@H]3CN3CCOCC3)c(-c3cc(C(=O)N(C)c4ccc(O)cc4)c4n3CCCC4)cc2C1 [Example 11, N-(4-Hydroxyphenyl)-N-methyl-3-{6-[(3S)-3-(morpholin-4-ylmethyl)-1,2,3,4-tetrahydroisoquinoline-2-carbonyl]-2-propanoyl-2,3-dihydro-1H-isoindol-5-yl}-5,6,7,8-tetrahydroindolizine-1-carboxamide hydrochloride] | 22 | 763 | –
14 | CN(C(=O)c1cc(-c2cc3c(cc2C(=O)N2Cc4ccccc4C[C@H]2CN2CCOCC2)CN(C(=O)NCc2ccccc2)CC3)n2c1CCCC2)c1ccc(O)cc1 [Example 78, N-Benzyl-6-{1-[(4-hydroxyphenyl)(methyl)carbamoyl]-5,6,7,8-tetrahydroindolizin-3-yl}-7-[(3S)-3-(morpholin-4-ylmethyl)-1,2,3,4-tetrahydroisoquinoline-2-carbonyl]-1,2,3,4-tetrahydroisoquinoline-2-carboxamide] | 4.4 | 142 | –
